Assay [1] addresses Human MER (residues 528-999) (Homo sapiens (Human), UniProt Q12866). As to the kind of experiment: Human Mer kinase assay, HTRF KinEase (Example C-2). The format is biochemical. The conditions noted are these: protocol of Example C-2. The procedure, abridged:
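HTRF KinEase TK assay with MER 528-999 (1 ng/well) in enzymatic buffer plus 5 mM MgCl2 and 1 mM DTT, biotinylated peptide substrate and ATP at Km (40 μM), 3% DMSO final, 60 min at room temperature. Stopped with EDTA detection mix (SA-XL665, TK antibody-Eu3+), read at 665/620 nm after 60 min; IC50 from 10-point 4-parameter fit, normalized to DMSO and 1 μM reference.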
In general terms: In TR-FRET formats the signal depends on donor and acceptor labels being close together.

The target in assay [2] is Human MET (residues 956-1390) (Homo sapiens (Human), UniProt P08581). The experiment in a line: Human Met kinase assay, HTRF KinEase (Example D-2). The conditions noted are these: protocol of Example D-2; read-out: c-Met IC50. It is filed as biochemical. The procedure, abridged: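 HTRF KinEase assay on MET residues 956-1390 (0.1 ng/well) in buffer with 5 mM MgCl2, 1 mM DTT and 1 mM MnCl2, with biotinylated peptide substrate, ATP at Km, 10 compound concentrations and 3% DMSO final, run 40 min at room temperature. The […] signal was normalized to DMSO and to 1 μM reference compound, and IC50 came from a 4-parameter logistic fit.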

The target in assay [3] is KDR (phospho-KDR, VEGF165-stimulated HUVEC cells) (Homo sapiens (Human), UniProt P35968). The experiment in a line: KDR autophosphorylation ELISA in HUVEC cells (Example G). It is filed as cell-based. The conditions noted are these: cellular activity; KDR autophosphorylation ELISA in HUVEC cells. The procedure, abridged: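 HUVEC cells, serum-starved 24 h, were treated 1 h with an 8-point compound dilution (0.3% DMSO) and then stimulated with 100 ng/mL VEGF165 for 5 min. Phospho-KDR in lysates was quantified by sandwich ELISA against a phospho-KDR standard. IC50 from a 4-parameter logistic fit, normalised between stimulated DMSO and unstimulated controls.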
A general note: In an ELISA, binding on a coated surface is turned into a signal by an enzyme label.

Assay [4] addresses Mer (phospho-Mer, MERTK-transfected 293A cells) (Homo sapiens (Human), UniProt Q12866). As to the kind of experiment: Mer autophosphorylation ELISA in transient transfected 293A cells (Example H). The format is cell-based. As to conditions: cellular activity; Mer autophosphorylation ELISA in transient transfected 293A cells. In outline: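 Human MERTK transiently transfected into 293A cells; compounds as 8-point dose curve in serum-free medium (0.3% DMSO final), 1 h. Lysates assayed by phospho-Mer sandwich ELISA against phospho-Mer standard; DMSO = 100%, reference inhibitor = 0% activity; IC50 from 4-parameter logistic fit.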

Human MER (residues 528-999), sequence (Q12866 528-999): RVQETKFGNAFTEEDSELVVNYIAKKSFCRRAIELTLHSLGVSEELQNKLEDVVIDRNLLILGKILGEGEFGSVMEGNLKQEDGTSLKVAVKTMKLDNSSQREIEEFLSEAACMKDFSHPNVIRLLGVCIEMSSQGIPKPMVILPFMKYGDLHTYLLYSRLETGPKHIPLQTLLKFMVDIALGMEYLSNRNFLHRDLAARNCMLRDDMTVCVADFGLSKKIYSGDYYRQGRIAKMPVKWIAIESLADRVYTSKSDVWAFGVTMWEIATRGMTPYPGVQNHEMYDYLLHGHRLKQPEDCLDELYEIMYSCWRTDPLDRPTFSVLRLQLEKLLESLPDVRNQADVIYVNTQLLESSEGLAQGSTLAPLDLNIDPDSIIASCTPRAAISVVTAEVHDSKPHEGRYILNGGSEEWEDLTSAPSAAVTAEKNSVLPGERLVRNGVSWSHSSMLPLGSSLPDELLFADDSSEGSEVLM
Human MET (residues 956-1390), sequence (P08581 956-1390): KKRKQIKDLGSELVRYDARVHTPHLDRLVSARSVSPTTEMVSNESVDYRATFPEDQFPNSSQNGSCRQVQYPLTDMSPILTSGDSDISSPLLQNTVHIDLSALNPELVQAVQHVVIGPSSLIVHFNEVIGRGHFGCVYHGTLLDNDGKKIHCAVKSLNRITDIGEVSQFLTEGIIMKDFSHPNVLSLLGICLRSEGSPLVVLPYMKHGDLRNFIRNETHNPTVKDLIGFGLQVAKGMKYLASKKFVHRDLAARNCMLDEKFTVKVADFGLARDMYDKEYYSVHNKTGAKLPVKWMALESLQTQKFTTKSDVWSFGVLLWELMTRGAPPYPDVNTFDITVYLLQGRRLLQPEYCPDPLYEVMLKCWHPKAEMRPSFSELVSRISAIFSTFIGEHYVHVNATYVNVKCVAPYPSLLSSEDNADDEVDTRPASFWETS
KDR (phospho-KDR, VEGF165-stimulated HUVEC cells), sequence (P35968 20-1356): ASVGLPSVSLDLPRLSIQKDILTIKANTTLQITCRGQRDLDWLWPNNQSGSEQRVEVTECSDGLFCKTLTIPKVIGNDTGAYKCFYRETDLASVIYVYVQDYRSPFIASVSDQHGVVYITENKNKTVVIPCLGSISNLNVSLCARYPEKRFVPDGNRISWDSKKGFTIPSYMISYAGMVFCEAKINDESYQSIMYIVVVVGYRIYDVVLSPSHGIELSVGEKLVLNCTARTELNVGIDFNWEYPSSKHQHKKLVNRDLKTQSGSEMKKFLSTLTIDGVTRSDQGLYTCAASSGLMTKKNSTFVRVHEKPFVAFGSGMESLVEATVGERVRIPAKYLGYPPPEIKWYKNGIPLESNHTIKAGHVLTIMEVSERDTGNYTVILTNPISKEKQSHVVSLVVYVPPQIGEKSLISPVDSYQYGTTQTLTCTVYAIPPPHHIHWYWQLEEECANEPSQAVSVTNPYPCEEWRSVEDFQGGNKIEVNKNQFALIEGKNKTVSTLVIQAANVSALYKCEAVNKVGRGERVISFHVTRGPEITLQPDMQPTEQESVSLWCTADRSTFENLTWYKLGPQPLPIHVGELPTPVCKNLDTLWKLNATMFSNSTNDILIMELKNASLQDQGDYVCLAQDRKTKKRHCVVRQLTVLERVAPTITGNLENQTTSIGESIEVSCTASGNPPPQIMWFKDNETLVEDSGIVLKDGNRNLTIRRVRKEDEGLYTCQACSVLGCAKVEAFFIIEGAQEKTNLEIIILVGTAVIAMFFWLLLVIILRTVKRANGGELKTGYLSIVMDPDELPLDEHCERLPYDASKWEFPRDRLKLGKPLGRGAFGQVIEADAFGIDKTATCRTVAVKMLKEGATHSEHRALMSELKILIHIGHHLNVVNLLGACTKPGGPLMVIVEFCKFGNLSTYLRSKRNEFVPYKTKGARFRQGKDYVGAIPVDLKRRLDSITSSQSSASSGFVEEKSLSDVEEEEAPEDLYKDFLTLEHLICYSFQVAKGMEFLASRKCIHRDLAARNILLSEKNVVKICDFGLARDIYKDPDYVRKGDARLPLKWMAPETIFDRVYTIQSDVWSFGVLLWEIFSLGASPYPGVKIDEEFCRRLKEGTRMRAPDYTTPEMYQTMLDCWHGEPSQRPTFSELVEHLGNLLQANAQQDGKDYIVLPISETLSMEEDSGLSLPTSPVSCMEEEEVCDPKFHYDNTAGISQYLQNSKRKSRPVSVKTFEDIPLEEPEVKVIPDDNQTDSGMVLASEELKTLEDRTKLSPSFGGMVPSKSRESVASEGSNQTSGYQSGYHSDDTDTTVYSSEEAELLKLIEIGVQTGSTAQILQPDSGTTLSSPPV
Mer (phospho-Mer, MERTK-transfected 293A cells), sequence (Q12866 21-999): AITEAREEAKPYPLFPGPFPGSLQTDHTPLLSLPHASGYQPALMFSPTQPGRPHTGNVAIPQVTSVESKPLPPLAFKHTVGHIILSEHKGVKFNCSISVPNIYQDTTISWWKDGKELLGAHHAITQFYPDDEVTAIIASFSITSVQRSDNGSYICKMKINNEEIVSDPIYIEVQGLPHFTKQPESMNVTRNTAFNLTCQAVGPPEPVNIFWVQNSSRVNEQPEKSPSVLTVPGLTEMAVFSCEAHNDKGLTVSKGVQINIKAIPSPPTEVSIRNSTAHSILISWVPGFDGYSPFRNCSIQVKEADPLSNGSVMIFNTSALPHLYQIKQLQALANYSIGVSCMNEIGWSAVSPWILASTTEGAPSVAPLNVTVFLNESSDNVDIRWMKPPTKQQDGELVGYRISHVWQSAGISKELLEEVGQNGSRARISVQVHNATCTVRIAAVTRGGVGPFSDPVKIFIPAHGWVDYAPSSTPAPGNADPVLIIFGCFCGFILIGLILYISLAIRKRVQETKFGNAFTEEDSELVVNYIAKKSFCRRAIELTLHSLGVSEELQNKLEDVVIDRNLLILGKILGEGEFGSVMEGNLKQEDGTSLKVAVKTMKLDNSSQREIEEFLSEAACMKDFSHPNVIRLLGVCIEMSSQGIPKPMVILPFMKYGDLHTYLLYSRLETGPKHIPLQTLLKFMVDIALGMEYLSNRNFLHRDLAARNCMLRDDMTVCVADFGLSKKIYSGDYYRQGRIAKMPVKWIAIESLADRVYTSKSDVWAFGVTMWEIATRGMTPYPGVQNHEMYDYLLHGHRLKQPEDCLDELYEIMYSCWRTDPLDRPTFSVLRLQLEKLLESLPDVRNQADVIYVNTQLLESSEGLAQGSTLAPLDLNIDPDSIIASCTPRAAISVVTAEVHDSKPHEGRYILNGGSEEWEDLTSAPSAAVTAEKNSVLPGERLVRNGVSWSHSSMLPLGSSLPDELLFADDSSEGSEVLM

As a reminder, the IC50 is the concentration at which inhibition is half-maximal. With `COc1cc2nccc(Oc3ccc(NC(=O)c4cn(C)c(CF)c(-c5ccc(F)cc5C)c4=O)cc3F)c2nc1OC` [Compound 556, N-[4-[(6,7-Dimethoxy-1,5-naphthyridin-4-yl)oxy]-3-fluorophenyl]-6-(fluoromethyl)-5-(4-fluoro-2-methylphenyl)-1-methyl-4-oxopyridine-3-carboxamide], the half-inhibitory concentration (IC50) in assay [1] was < 100 nM; in assay [2], 100 to 300 nM; in assay [3] it was < 100 nM; in assay [4], < 100 nM.
With `COCCOc1nc2c(Oc3ccc(NC(=O)c4cn(C)c(CF)c(-c5ccc(F)cc5)c4=O)cc3F)ccnc2cc1OC` [Compound 557, N-[3-Fluoro-4-[[7-methoxy-6-(2-methoxyethoxy)-1,5-naphthyridin-4-yl]oxy]phenyl]-6-(fluoromethyl)-5-(4-fluorophenyl)-1-methyl-4-oxopyridine-3-carboxamide], the half-inhibitory concentration (IC50) was < 100 nM in assay [1], < 100 nM in assay [2], 100 to 300 nM in assay [3] and < 100 nM in assay [4].
In the case of `CCn1cc(C(=O)Nc2ccc(Oc3ccnc4cc(OC)c(OC)nc34)cc2)c(=O)c(-c2ccc(F)cc2)c1CF` [Compound 558, N-[4-[(6,7-Dimethoxy-1,5-naphthyridin-4-yl)oxy]phenyl]-1-ethyl-6-(fluoromethyl)-5-(4-fluorophenyl)-4-oxopyridine-3-carboxamide], the IC50 in assay [1] was < 100 nM; in assay [2], 100 to 300 nM; in assay [3], 100 to 300 nM; in assay [4], < 100 nM.
Turning to `CCn1cc(C(=O)Nc2ccc(Oc3ccnc4cc(OC)cnc34)c(F)c2)c(=O)c(-c2ccc(F)cc2)c1CF` [Compound 559, 1-Ethyl-N-[3-fluoro-4-[(7-methoxy-1,5-naphthyridin-4-yl)oxy]phenyl]-6-(fluoromethyl)-5-(4-fluorophenyl)-4-oxopyridine-3-carboxamide], the half-inhibitory concentration (IC50) in assay [1] was < 100 nM; in assay [2], < 100 nM; in assay [3], > 300 nM; in assay [4], < 100 nM.
Take `COc1cc2nccc(Oc3ccc(NC(=O)c4cn(C)c(CF)c(-c5ccc(F)cc5)c4=O)cc3)c2nc1OC` [Compound 560, N-[4-[(6,7-Dimethoxy-1,5-naphthyridin-4-yl)oxy]phenyl]-6-(fluoromethyl)-5-(4-fluorophenyl)-1-methyl-4-oxopyridine-3-carboxamide]: the IC50 in assay [1] was < 100 nM; in assay [2], < 100 nM; in assay [3] it was 100 to 300 nM; in assay [4], < 100 nM.
As to `COc1ccc2nccc(Oc3ccc(NC(=O)c4cn(C)c(CF)c(-c5ccc(F)cc5)c4=O)cc3F)c2n1` [Compound 561, N-[3-Fluoro-4-[(6-methoxy-1,5-naphthyridin-4-yl)oxy]phenyl]-6-(fluoromethyl)-5-(4-fluorophenyl)-1-methyl-4-oxopyridine-3-carboxamide], the half-inhibitory concentration (IC50) in assay [1] was < 100 nM; in assay [2], 100 to 300 nM; in assay [3], > 300 nM; in assay [4], < 100 nM.
Regarding `CCn1cc(C(=O)Nc2ccc(Oc3ccnc4cc(OC)c(OC)nc34)c(F)c2)c(=O)c(-c2ccc(F)cc2)c1CF` [Compound 562, N-[4-[(6,7-Dimethoxy-1,5-naphthyridin-4-yl)oxy]-3-fluorophenyl]-1-ethyl-6-(fluoromethyl)-5-(4-fluorophenyl)-4-oxopyridine-3-carboxamide], the 50% inhibitory concentration (IC50) in assay [1] is < 100 nM; in assay [2] it was 100 to 300 nM; in assay [3], 100 to 300 nM; in assay [4], < 100 nM.

Values taken from patent US12371428B2 (Exelixis, Inc., priority 2019, dated 2025).
